Assay results from ChEMBL document CHEMBL4004873, “SAR of amino pyrrolidines as potent and novel protein-protein interaction inhibitors of the PRC2 complex through EED binding” (Bioorg Med Chem Lett, 2017).

system: not listed separately; assay: Permeability of the compound by PAMPA; assay type: physicochemical; conditions: read-out: permeability

Compound	Papp [×10⁻⁶ cm/s]
CN(C)[C@H]1CN(Cc2c(F)cccc2Cl)C[C@@H]1c1cn(C)c2ccccc12 (racemic)	1 to 3
Cc1cccc(F)c1CN1C[C@H](c2cn(C)c3ccccc23)[C@@H](N(C)C)C1	1 to 3
CN(C)[C@H]1CN(Cc2c(F)cccc2Br)C[C@@H]1c1cn(C)c2ccccc12 (racemic)	1 to 3
CN(C)[C@H]1CN([C@H]2CCc3cccc(F)c32)C[C@@H]1c1cn(C)c2ccccc12	1 to 3

target: T1, Polycomb protein EED (Homo sapiens, UniProt O75530); assay: Inhibition of EED in human G401 cells assessed as reduction in H3K27 trymethylation measured after 6 days by alphaLISA method; assay type: cell-based; conditions: not given
T1 sequence (O75530 whole entry): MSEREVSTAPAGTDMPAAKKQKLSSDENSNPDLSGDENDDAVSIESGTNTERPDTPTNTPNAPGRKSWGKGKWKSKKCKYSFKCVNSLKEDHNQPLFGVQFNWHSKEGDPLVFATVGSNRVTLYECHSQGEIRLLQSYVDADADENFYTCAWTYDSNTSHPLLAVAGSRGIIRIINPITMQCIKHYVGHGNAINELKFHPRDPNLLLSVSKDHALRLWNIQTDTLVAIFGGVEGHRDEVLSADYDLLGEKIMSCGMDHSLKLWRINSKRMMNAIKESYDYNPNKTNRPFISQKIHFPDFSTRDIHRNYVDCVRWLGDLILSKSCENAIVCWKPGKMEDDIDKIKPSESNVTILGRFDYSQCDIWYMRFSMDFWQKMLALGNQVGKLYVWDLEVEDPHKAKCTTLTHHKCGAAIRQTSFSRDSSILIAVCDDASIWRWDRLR

Compound	IC50 [nM]
CN(C)[C@H]1CN(C2CCc3cccc(F)c32)C[C@@H]1C1CCN(c2ccc(C(N)=O)cn2)CC1 (mixture of isomers)	230
CN(C)[C@H]1CN(Cc2c(F)cccc2Cl)C[C@@H]1c1cn(C)c2ccccc12 (racemic)	6900
Cc1cccc(F)c1CN1C[C@H](c2cn(C)c3c(N4CCN(C)C(=O)C4)cccc23)[C@@H](N(C)C)C1 (mixture of isomers)	190
CC(=O)N1CCN(c2ccc([C@H]3CN(C4CCc5cccc(F)c54)C[C@@H]3N(C)C)cc2)CC1 (mixture of isomers)	33
Cc1cccc(F)c1CN1C[C@H](c2cn(C)c3ccccc23)[C@@H](N(C)C)C1	2400
CN(C)[C@H]1CN(Cc2c(F)cccc2Br)C[C@@H]1c1cn(C)c2ccccc12 (racemic)	4100
CN(C)[C@H]1CN([C@H]2CCc3cccc(F)c32)C[C@@H]1c1cn(C)c2ccccc12	290
Cc1cccc(F)c1CN1C[C@H](c2cn(C)c3c(C(=O)N4CC(F)C4)cccc23)[C@@H](N(C)C)C1 (mixture of isomers)	31

system: Pfeiffer; assay: Antiproliferative activity against human Pfeiffer cells after 10 days by celltiter-glo luminescent cell viability Assay; assay type: functional, cell-based; conditions: 240 h

Compound	IC50 [nM]
CN(C)[C@H]1CN(C2CCc3cccc(F)c32)C[C@@H]1C1CCN(c2ccc(C(N)=O)cn2)CC1 (mixture of isomers)	130
CN(C)[C@H]1CN(Cc2c(F)cccc2Cl)C[C@@H]1c1cn(C)c2ccccc12 (racemic)	3300
Cc1cccc(F)c1CN1C[C@H](c2cn(C)c3c(N4CCN(C)C(=O)C4)cccc23)[C@@H](N(C)C)C1 (mixture of isomers)	98
CC(=O)N1CCN(c2ccc([C@H]3CN(C4CCc5cccc(F)c54)C[C@@H]3N(C)C)cc2)CC1 (mixture of isomers)	33
Cc1cccc(F)c1CN1C[C@H](c2cn(C)c3ccccc23)[C@@H](N(C)C)C1	3300
CN(C)[C@H]1CN(Cc2c(F)cccc2Br)C[C@@H]1c1cn(C)c2ccccc12 (racemic)	9500
CN(C)[C@H]1CN([C@H]2CCc3cccc(F)c32)C[C@@H]1c1cn(C)c2ccccc12	1100
Cc1cccc(F)c1CN1C[C@H](c2cn(C)c3c(C(=O)N4CC(F)C4)cccc23)[C@@H](N(C)C)C1 (mixture of isomers)	65

system: not listed separately; assay: Intrinsic clearance in mouse liver microsomes at 0.5 uM by HPLC-MS/MS method; assay type: ADME, microsome; conditions: read-out: CLH

Compound	CLint scaled at 0.5 µM [L/h/kg]
CN(C)[C@H]1CN([C@@H]2CCc3cccc(F)c32)C[C@@H]1c1cn(C)c2ccccc12	> 1000
CN(C)[C@H]1CN(Cc2c(F)cccc2Cl)C[C@@H]1c1cn(C)c2ccccc12 (racemic)	> 1000
CN(C)[C@H]1CN(Cc2ccccc2F)C[C@@H]1c1cn(C)c2ccccc12 (racemic)	> 1000
Cc1cccc(F)c1CN1C[C@H](c2cn(C)c3ccccc23)[C@@H](N(C)C)C1	> 1000
CN(C)[C@H]1CN(Cc2c(F)cccc2Br)C[C@@H]1c1cn(C)c2ccccc12 (racemic)	> 1000
CN(C)[C@H]1CN([C@H]2CCc3cccc(F)c32)C[C@@H]1c1cn(C)c2ccccc12	> 1000
CN(C)[C@H]1CN(Cc2ccccc2)C[C@@H]1c1cn(C)c2ccccc12 (racemic)	> 1000
COc1ccccc1CN1C[C@H](c2cn(C)c3ccccc23)[C@@H](N(C)C)C1 (racemic)	> 1000
Cc1ccc(F)c(CN2C[C@H](c3cn(C)c4ccccc34)[C@@H](N(C)C)C2)c1 (racemic)	> 1000

target: T1, Polycomb protein EED; assay: Inhibition of EED in human OCILY19 cells assessed as reduction in H3K27 trymethylation measured after 6 days by alphaLISA method; assay type: cell-based; conditions: not given

Compound	IC50 [nM]
CN(C)[C@H]1CN(C2CCc3cccc(F)c32)C[C@@H]1C1CCN(c2ccc(C(N)=O)cn2)CC1 (mixture of isomers)	280
CN(C)[C@H]1CN(Cc2c(F)cccc2Cl)C[C@@H]1c1cn(C)c2ccccc12 (racemic)	> 10000
Cc1cccc(F)c1CN1C[C@H](c2cn(C)c3c(N4CCN(C)C(=O)C4)cccc23)[C@@H](N(C)C)C1 (mixture of isomers)	100
CC(=O)N1CCN(c2ccc([C@H]3CN(C4CCc5cccc(F)c54)C[C@@H]3N(C)C)cc2)CC1 (mixture of isomers)	50
Cc1cccc(F)c1CN1C[C@H](c2cn(C)c3ccccc23)[C@@H](N(C)C)C1	2400
CN(C)[C@H]1CN(Cc2c(F)cccc2Br)C[C@@H]1c1cn(C)c2ccccc12 (racemic)	8300
CN(C)[C@H]1CN([C@H]2CCc3cccc(F)c32)C[C@@H]1c1cn(C)c2ccccc12	660
Cc1cccc(F)c1CN1C[C@H](c2cn(C)c3c(C(=O)N4CC(F)C4)cccc23)[C@@H](N(C)C)C1 (mixture of isomers)	180

system: Liver; assay: Unbound intrinsic clearance in mouse liver microsomes at 0.5 uM by HPLC-MS/MS method; assay type: ADME, microsome; conditions: not given

Compound	CL free [L/h/kg]
CN(C)[C@H]1CN(C2CCc3cccc(F)c32)C[C@@H]1C1CCN(c2ccc(C(N)=O)cn2)CC1 (mixture of isomers)	120
Cc1cccc(F)c1CN1C[C@H](c2ccc(N3CCN(c4ccccn4)CC3)cc2)[C@@H](N(C)C)C1 (racemic)	9900
Cc1cccc(F)c1CN1C[C@H](c2ccccc2)[C@@H](N(C)C)C1 (racemic)	1300
CC(=O)N1CCN(c2ccc([C@H]3CN(C4CCc5cccc(F)c54)C[C@@H]3N(C)C)cc2)CC1 (mixture of isomers)	220
CC(=O)N1CCN(c2ccc([C@H]3CN(Cc4c(C)cccc4F)C[C@@H]3N(C)C)cc2)CC1 (racemic)	170
Cc1cccc(F)c1CN1C[C@H](c2ccc(C(=O)N(C)C)cc2)[C@@H](N(C)C)C1 (racemic)	97
Cc1cccc(F)c1CN1C[C@H](c2cn(CC(=O)N(C)C)c3ncccc23)[C@@H](N(C)C)C1 (racemic)	276
Cc1cccc(F)c1CN1C[C@H](c2ccc(C3=CCN(C(=O)CS(C)(=O)=O)CC3)nc2)[C@@H](N(C)C)C1 (racemic)	268
Cc1cccc(F)c1CN1C[C@H](c2cn(C)c3c(C(=O)N4CC(F)C4)cccc23)[C@@H](N(C)C)C1 (mixture of isomers)	1100
Cc1cccc(F)c1CN1C[C@H](c2ccc(-c3cnn(CC(N)=O)c3)cc2)[C@@H](N(C)C)C1 (racemic)	225

target: T1, Polycomb protein EED; assay: Inhibition of OG(488) labeled probe binding to GST-tagged EED (unknown origin) after 1 hr by LanthaScreen TR-FRET assay; conditions: not given

Compound	Ki [nM]
CN(C)[C@H]1CN(Cc2c(F)cccc2Br)C[C@@H]1C1CC1 (racemic)	71
CN(C)[C@H]1CN(C2CCc3cccc(F)c32)C[C@@H]1C1CCN(c2ccc(C(N)=O)cn2)CC1 (mixture of isomers)	0.45
Cc1cccc(F)c1CN1C[C@H](c2ccc(N3CCN(c4ccccn4)CC3)cc2)[C@@H](N(C)C)C1 (racemic)	2.1
CN(C)[C@H]1CN(Cc2c(F)cccc2Br)C[C@@H]1C1CCCCC1 (racemic)	230
CN(C)[C@H]1CN(Cc2nccn2C)C[C@@H]1c1cn(C)c2ccccc12 (racemic)	> 50000
CN(C)C(=O)c1cccc2c([C@H]3CN(Cc4c(F)cccc4Br)C[C@@H]3N(C)C)cn(C)c12	23
Cc1nc2ncccn2c1CN1C[C@H](c2cn(C)c3ccccc23)[C@@H](N(C)C)C1 (racemic)	> 50000
CN(C)[C@H]1CN([C@H]2CCCc3ccccc32)C[C@@H]1c1cn(C)c2ccccc12 (racemic)	78
CN(C)[C@H]1CN(Cc2c(F)cccc2Br)C[C@@H]1c1ccccc1 (racemic)	78
CN(C)[C@H]1CN([C@@H]2CCc3cccc(F)c32)C[C@@H]1c1cn(C)c2ccccc12	129
CN(C)[C@H]1CN([C@H]2COc3cccc(F)c32)C[C@@H]1c1cn(C)c2ccccc12	610
Cc1cccc(F)c1CN1C[C@H](C2CCN(c3cnc(C(N)=O)cn3)CC2)[C@@H](N(C)C)C1 (racemic)	0.65
CN(C)[C@H]1CN(Cc2c(F)cccc2Cl)C[C@@H]1c1cn(C)c2ccccc12 (racemic)	53
CN(C)[C@H]1CN(Cc2c(F)cccc2Br)C[C@@H]1c1ccncc1 (racemic)	49
Cc1cccc(F)c1CN1C[C@H](c2ccccc2)[C@@H](N(C)C)C1 (racemic)	56
CCn1cc(CN2C[C@H](c3cn(C)c4ccccc34)[C@@H](N(C)C)C2)c(C)n1 (racemic)	> 50000
CN(C)[C@H]1CN([C@H]2CCc3ccccc32)C[C@@H]1c1cn(C)c2ccccc12 (racemic)	45
Cc1cccc(F)c1CN1C[C@H](c2cn(C)c3c(N4CCN(C)C(=O)C4)cccc23)[C@@H](N(C)C)C1 (mixture of isomers)	0.74

Compound	Ki [nM]
C[C@H]1CN(Cc2c(F)cccc2Br)C[C@@H]1N(C)C (racemic)	380
CC(=O)N1CCN(c2ccc([C@H]3CN(C4CCc5cccc(F)c54)C[C@@H]3N(C)C)cc2)CC1 (mixture of isomers)	0.29
CN(C)[C@H]1CN(Cc2ccccc2F)C[C@@H]1c1cn(C)c2ccccc12 (racemic)	330
CC(=O)N1CCN(c2ccc([C@H]3CN(Cc4c(C)cccc4F)C[C@@H]3N(C)C)cc2)CC1 (racemic)	2.6
Cc1cccc(F)c1CN1C[C@H](c2ccc(C(=O)N(C)C)cc2)[C@@H](N(C)C)C1 (racemic)	18
CN(C)[C@H]1CN([C@H]2CCc3ncccc32)C[C@@H]1c1cn(C)c2ccccc12 (racemic)	260
Cc1cccc(F)c1CN1C[C@H](c2cn(C)c3ccccc23)[C@@H](N(C)C)C1	12
CN(C)[C@H]1CN(Cc2c(F)cccc2Br)C[C@@H]1c1cn(C)c2ccccc12 (racemic)	13
CN(C)[C@H]1CN([C@H]2CCc3cccc(F)c32)C[C@@H]1c1cn(C)c2ccccc12	11
CN(C)[C@H]1CN(Cc2ccccc2)C[C@@H]1c1cn(C)c2ccccc12 (racemic)	1500
Cc1cccc(F)c1CN1C[C@H](c2cn(CC(=O)N(C)C)c3ncccc23)[C@@H](N(C)C)C1 (racemic)	5.3
Cc1cccc(F)c1CN1C[C@H](c2ccc(C3=CCN(C(=O)CS(C)(=O)=O)CC3)nc2)[C@@H](N(C)C)C1 (racemic)	4.6
CN(C)[C@H]1CN(Cc2ccn3ccnc3c2)C[C@@H]1c1cn(C)c2ccccc12 (racemic)	> 50000
CN(C)[C@H]1CN(Cc2c(F)cccc2Br)C[C@@H]1C1CCOCC1 (racemic)	59
Cc1ccc(F)c(CN2C[C@H](c3cn(C)c4ccccc34)[C@@H](N(C)C)C2)c1 (racemic)	160
Cc1cccc(F)c1CN1C[C@H](c2cn(C)c3c(C(=O)N4CC(F)C4)cccc23)[C@@H](N(C)C)C1 (mixture of isomers)	1
Cc1cccc(F)c1CN1C[C@H](c2ccc(-c3cnn(CC(N)=O)c3)cc2)[C@@H](N(C)C)C1 (racemic)	2.6
